From ChEMBL document CHEMBL5729410, “Urea-substituted aromatic ring-linked dioxinoquinoline compounds, preparation method and uses thereof” (2022)

Columns and labels:
[1] = biological target: Proto-oncogene tyrosine-protein kinase receptor Ret (Homo sapiens, UniProt P07949); test: Assay of Small Molecular Compounds for Inhibiting the Activity of RET Kinase: The assay is based on the LANCE TR-FRET technology of Perkin Elmer Inc., and the assay method is as follows:1.
[2] = biological target: Vascular endothelial growth factor receptor 2 (Homo sapiens, UniProt P35968); test: Assay of Small Molecular Compounds for Inhibiting the Activity of VEGFR-2 Kinase: The assay is based on the LANCE TR-FRET technology of Perkin Elmer Inc., and the assay method is as follows:1.
Sequence of Vascular endothelial growth factor receptor 2 (P35968 whole entry): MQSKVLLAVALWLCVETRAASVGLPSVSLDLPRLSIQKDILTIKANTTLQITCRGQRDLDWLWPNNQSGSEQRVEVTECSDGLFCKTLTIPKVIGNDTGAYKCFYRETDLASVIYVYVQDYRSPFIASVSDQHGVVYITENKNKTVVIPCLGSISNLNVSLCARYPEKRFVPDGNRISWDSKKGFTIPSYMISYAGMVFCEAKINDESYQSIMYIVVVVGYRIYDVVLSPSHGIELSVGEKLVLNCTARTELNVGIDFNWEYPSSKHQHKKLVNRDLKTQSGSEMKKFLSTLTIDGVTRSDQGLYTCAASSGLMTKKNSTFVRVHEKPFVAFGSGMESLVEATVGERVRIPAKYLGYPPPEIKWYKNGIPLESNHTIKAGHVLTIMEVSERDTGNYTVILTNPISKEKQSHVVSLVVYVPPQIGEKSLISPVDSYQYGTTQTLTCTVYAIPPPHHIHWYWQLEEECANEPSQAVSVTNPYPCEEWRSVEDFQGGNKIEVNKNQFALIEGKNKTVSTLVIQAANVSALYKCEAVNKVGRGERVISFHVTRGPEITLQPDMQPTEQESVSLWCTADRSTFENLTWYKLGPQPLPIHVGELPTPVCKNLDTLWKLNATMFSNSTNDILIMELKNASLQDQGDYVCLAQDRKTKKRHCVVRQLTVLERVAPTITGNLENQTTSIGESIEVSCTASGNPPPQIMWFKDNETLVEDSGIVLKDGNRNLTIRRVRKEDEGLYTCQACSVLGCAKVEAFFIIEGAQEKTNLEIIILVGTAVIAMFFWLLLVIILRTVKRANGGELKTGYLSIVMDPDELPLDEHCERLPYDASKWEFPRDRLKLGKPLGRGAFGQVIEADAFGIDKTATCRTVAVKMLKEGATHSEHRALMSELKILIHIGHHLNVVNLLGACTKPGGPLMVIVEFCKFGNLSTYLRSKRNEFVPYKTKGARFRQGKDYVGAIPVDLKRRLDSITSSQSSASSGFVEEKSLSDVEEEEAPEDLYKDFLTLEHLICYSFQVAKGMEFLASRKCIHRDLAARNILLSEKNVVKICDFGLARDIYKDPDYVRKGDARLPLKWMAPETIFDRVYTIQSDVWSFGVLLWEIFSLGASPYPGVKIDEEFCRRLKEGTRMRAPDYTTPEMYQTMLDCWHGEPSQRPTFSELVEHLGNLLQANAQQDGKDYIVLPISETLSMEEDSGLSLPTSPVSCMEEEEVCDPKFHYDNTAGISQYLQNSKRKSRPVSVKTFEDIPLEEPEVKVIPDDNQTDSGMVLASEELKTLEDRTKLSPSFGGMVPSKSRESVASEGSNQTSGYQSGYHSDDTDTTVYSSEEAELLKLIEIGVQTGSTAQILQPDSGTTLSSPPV

Sequence of Proto-oncogene tyrosine-protein kinase receptor Ret (P07949 whole entry): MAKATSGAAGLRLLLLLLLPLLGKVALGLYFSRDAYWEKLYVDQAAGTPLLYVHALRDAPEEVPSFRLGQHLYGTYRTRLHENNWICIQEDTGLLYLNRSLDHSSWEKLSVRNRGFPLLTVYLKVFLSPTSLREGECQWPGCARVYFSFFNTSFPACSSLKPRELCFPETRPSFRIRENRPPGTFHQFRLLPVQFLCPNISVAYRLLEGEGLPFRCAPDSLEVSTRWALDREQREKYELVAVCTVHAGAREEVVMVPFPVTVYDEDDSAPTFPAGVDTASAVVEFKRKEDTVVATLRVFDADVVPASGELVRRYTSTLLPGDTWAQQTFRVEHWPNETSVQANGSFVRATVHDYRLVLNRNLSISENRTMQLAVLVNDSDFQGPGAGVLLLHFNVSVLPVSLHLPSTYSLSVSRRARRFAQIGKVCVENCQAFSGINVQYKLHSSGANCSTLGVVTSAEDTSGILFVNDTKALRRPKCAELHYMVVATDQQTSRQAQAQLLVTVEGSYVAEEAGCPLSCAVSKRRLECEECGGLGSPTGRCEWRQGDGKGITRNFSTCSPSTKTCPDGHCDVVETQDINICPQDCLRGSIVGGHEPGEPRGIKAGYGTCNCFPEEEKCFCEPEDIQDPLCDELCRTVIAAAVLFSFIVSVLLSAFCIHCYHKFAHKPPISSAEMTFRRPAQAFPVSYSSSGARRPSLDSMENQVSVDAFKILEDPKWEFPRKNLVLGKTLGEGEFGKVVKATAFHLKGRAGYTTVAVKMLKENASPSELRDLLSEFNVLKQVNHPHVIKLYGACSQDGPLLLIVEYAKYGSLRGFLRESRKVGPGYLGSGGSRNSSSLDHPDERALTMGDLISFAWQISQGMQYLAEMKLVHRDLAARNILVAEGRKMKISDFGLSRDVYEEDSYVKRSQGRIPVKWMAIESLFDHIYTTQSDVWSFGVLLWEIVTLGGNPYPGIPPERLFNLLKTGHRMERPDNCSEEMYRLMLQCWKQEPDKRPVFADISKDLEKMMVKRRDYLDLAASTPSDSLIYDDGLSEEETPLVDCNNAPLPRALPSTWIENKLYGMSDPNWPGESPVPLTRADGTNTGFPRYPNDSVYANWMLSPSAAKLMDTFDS

| Compound | IC50 [1] [nM] | IC50 [2] [nM] |
| --- | --- | --- |
| CN(CCCOc1cc2nccc(Oc3ccc(NC(=O)Nc4ccc(Cl)c(C(F)(F)F)c4)cc3)c2c2c1OCCO2)C1CCC1 | < 50 | < 50 |
| O=C(Nc1ccc(Oc2ccnc3cc(OC4CCOCC4)c4c(c23)OCCO4)cc1Cl)NC1CC1 | < 50 |  |
| O=C(Nc1ccc(Oc2ccnc3cc(OCCCN4CCOCC4)c4c(c23)OCCO4)cc1F)NC1CC1 | < 50 | < 50 |
